Measurements taken from US20030032158A1, “Method of modulating the efficiency of translation termination and degradation of aberrant mRNA involving a surveillance complex comprising human Upf1p,eucaryotic release factor 1 and eucaryotic release factor 3” (University of Medicine and Dentistry of New Jersey, priority 1998, published 2003).
“Also recorded” adds a separate entry of the source.

Columns and labels:
[1] = target: T1, Upf1p-eRF3 interaction (Saccharomyces cerevisiae, UniProt P30771); assay: GST-eRF3 pull-down of purified FLAG-Upf1p, immunoblot; assay type: binding, yeast; settings: 1 mM ATP, 1 mM GTP or 100 μg/ml poly(U) RNA
T1 construct: made in house; host or cells: GST-eRF3: E. coli BL21(DE3) pLysS with pGEX2T-SUP35
T1 sequence (P30771 1-971): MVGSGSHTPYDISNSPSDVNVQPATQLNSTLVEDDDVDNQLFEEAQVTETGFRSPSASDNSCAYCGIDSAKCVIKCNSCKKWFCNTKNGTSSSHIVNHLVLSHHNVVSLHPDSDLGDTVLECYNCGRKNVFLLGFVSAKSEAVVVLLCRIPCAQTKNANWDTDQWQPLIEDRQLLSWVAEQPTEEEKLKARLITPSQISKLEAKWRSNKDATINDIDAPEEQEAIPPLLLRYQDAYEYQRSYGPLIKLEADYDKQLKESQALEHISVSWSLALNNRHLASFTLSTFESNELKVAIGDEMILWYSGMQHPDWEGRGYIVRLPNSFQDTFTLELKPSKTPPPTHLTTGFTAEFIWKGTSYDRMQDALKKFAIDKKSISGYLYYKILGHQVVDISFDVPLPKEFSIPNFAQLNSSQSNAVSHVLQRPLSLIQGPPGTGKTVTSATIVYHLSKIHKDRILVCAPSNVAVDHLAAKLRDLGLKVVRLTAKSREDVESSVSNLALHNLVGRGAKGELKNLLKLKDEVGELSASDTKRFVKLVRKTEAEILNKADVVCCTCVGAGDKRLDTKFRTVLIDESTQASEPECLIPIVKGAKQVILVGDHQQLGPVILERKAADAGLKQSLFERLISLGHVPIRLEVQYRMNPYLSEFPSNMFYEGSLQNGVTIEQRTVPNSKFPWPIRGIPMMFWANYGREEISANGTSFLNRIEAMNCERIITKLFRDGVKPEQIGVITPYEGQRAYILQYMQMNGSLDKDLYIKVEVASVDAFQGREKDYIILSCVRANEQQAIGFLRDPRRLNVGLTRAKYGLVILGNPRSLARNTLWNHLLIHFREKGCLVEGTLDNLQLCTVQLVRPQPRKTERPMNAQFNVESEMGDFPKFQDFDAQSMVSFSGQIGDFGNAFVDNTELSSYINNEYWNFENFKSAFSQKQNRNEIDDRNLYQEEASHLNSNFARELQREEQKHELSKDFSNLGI
Experimental: FIG. 3. eRF3 and RNA compete for binding to Upf1p. (A) Poly(U) RNA prevents Upf1p from binding to eRF3. Reaction mixtures were prepared as described in FIG. 1B, except that binding was performed in TBSTB (TBST with 100 μg/ml BSA) and reaction mixtures contained 1 mM ATP, 1 mM GTP, or 100 μg/ml poly(U) RNA as indicated above each lane. The reaction mixtures were mixed for 1 hour at 4° C. Following mixing, the complexes were washed as in FIG. 1B with TBSTB containing 1 mM ATP, 1 mM GTP, or 100 μg/ml poly(U) RNA as indicated above each lane. […] Reaction mixtures were prepared as in FIG. 1B, in the presence or absence of […] poly(U) RNA as indicated above each lane. (C) eRF3 inhibits Upf1p RNA binding. A uniformly labeled 32 nt RNA was synthesized by SP6 transcription of SstI digested pGEM5Zf(+). The indicated amounts of GST-eRF3, were incubated with 200 ng Upf1p for 15 minutes at 4° C. 50 fmol of the RNA substrate was added and incubated for 5 minutes. Stop solution was added, and reactions electrophoresed in a 4.5% native PAGE gel (0.5×TBE, 30:0.5 acrylamide:bisacrylamide, with 5% glycerol). […]
Further, purified Flag-Upf1p with poly(U) RNA was incubated in the presence or absence of ATP. […] GST-eRF3 was added to the reaction mixtures and the Upf1-eRF3 interaction was monitored by immunoblotting analysis as before.

[2] = system: isogenic wild-type and upf3Δ strains; assay: Paromomycin sensitivity, zone of growth inhibition around a disc on a lawn of cells; assay type: cell-based, Saccharomyces cerevisiae
Experimental: FIG. 11. Paromomycin sensitivity was monitored in isogenic wild-type and upf3Δ strains by placing a disc containing 1 mg of paromomycin onto a lawn of cells and determining the zone of growth inhibition around the disc.
Paromomycin sensitivity was monitored in isogenic wild-type and upf3Δ strains by placing a disc containing 1 mg of paromomycin onto a lawn of cells and determining the zone of growth inhibition around the disc (FIG. 11).

[3] = system: −1 ribosomal frameshifting; assay: β-galactosidase assay of −1 ribosomal frameshifting with plasmids pF8 / pTI25; assay type: cell-based, Saccharomyces cerevisiae
Experimental: Killer assays, frameshifting assays and extraction and analysis of total nucleic acids:The killer assay was carried out as previously described (Dinman, J. D., and Wickner, R. B. (1992)) by replica plating colonies onto 4.7 MB plates newly seeded with a lawn of 5×47 killer indicator cells (0.5 ml of a suspension at 1 unit of optical density at 550 nm per ml per plate). After 2 days at 20° C., killer activity was observed as a zone of growth inhibition around the killer colonies. To quantitate loss of killer activity, colonies that had been identified as killer^+ were re-streaked for single colonies and the percentage of killer^− colonies were determined. The efficiencies of −1 frameshifting were determined as previously described (Cui, Y., Dinman, J. D., and Peltz, S. W. (1996); Dinman, J. D., Ruiz-Echevarria, M. J., Czaplinski, K. and Peltz, S. W. (1997b)) using the 0-frame control (pTI25) and −1 reporter (pF8) plasmids.
Methods to measure efficiencies of programmed ribosomal frameshifting in vivo have been described previously (Cui, Y., Dinman, J. D., and Peltz, S. W. (1996); Dinman, J. D., Icho, T., and Wickner, R. B. (1991); Dinman, J. D., Ruiz-Echevarria, M. J., Czaplinski, K. and Peltz, S. W. (1997b)). […] Similarly, the +1 ribosomal frameshift efficiency is calculated based on the pJD104 to pTI25 β-gal ratios. […]

[4] = system: isogenic wild-type and upf3Δ strains; settings: cells harboring the mof4-1 allele of UPF1; previous results; cited from earlier work

Row | Structure (SMILES) | Effect on interaction between Upf1p and eRF3 [1] | Paromomycin sensitivity (zone of growth inhibition) ([2]; upf1Δ or upf2Δ strains) | Paromomycin sensitivity (zone of growth inhibition) ([2]; upf3Δ strain vs isogenic wild-type, disc containing 1 mg of paromomycin) | β-galactosidase activity (−1 frameshift reporter) ([3]; upf3Δ cells carrying pF8, liquid media, different concentrations of the drug) | β-galactosidase activity ([3]; wild-type cells containing pF8, or any strain carrying pTI25 (zero frame control)) | Paromomycin sensitivity [4]
1 | Nc1nc2c(ncn2[C@@H]2O[C@H](COP(=O)(O)OP(=O)(O)OP(=O)(O)O)[C@@H](O)[C@H]2O)c(=O)[nH]1 [GTP] | not affected | – | – | – | – | –
2 | NC[C@@H]1O[C@H](O[C@H]2[C@@H](O)[C@H](O[C@@H]3[C@@H](O)[C@H](N)C[C@H](N)[C@H]3O[C@H]3O[C@H](CO)[C@@H](O)[C@H](O)[C@H]3N)O[C@@H]2CO)[C@H](N)[C@@H](O)[C@@H]1O [paromomycin] | – | Neither the upf1Δ or upf2Δ strains demonstrate hypersensitivity | more sensitive to paromomycin than the isogenic wild-type strain | increased continuously with increased concentrations of paromomycin | unaffected | increased sensitivity to paromomycin than the isogenic wild-type strain
3 | Nc1ncnc2c1ncn2[C@@H]1O[C@H](COP(=O)(O)OP(=O)(O)OP(=O)(O)O)[C@@H](O)[C@H]1O [ATP] | did not affect the interaction; also recorded: did not prevent association of Upf1p with eRF3 | – | – | – | – | –
